The source of these data is patent US7049066B2, “Diagnosis and treatment of myocardial failure” (The Regents of the University of Colorado, priority 1997, dated 2006).

The structures appear in SMILES notation.

Assay [1] concerns α-MHC. The settings on record: hypothyroid rats; cited from earlier work.
Assay [2] has as its system isolated right ventricular (RV) trabeculae from end-stage failing human hearts. The settings on record: 1 nM T3, incubated for 4 or 12 hours.

For `O=C(O)CCc1cc(I)c(Oc2ccc(O)cc2)c(I)c1` [3,5-diiodothyroproprionic acid], in assay [1], the “production of α-MHC” value was “increase the production of (α-MHC”.

Take `N[C@@H](Cc1cc(I)c(Oc2ccc(O)c(I)c2)c(I)c1)C(=O)O` [T3, 3,5,3′-triiodo-L-thyronine]: in assay [2], the “SRCA gene expression, T3 group compared to control group” value was “no significant differences” and the “adrenergic receptor gene expression, T3 group compared to control group” value is recorded as “no significant differences”. For the same molecule, in assay [2] (p < .05 vs. no T3), the “% α-MHC isoform mRNA present following incubation” value is listed as 24.5 ± 9.29 % and the “% β-MHC isoform mRNA present following incubation” value stood at 75.5 ± 9.29 %.
